System: NRVMs
Assay: Toxicity of the nuclear label to NRVMs during dye loading
Type: cell-based, rat
Details: 200 ng/ml in loading solution, 25 minutes
Method: Sensitivity to intracellular calcium kinetics is a desirable goal for automated calcium transient image cytometry because it is desirable to distinguish healthy contractile ESCMs from background non-contractile stem cells. […] The cells were maintained 48 to 72 hrs prior to scanning. On the day of scanning, the cells were incubated with a 3 μM solution of the acetyoxymethylester form of an intracellular calcium indicator (either Fluo-4 AM or Fluo-3 AM) in the base media for 25 minutes. The plasma membrane permeable to the acetoxymethylester forms of Fluo-3 and Fluo-4, which are modified intracellularly by esterases to an impermeable form. The loading solution was also supplemented with 200 ng/ml Hoechst 33342 to label DNA within the nuclei. This concentration of Hoechst provides adequate label of the nuclei and was non-toxic under these conditions. Thus, the labeling procedure introduced a green-fluorescence channel fluorescent calcium indicator into the cytoplasm of the NRVMs (Fluo-4) and a blue-fluorescence channel nuclear stain (Hoechst). The nuclear channel was used for autofocus at each well; additionally, images obtained of the nuclei provided information regarding cellular position that was helpful in assigning boundaries between cells in the segmentation procedure applied to the green-channel images. […]

SMILES: CCOc1ccc(-c2nc3ccc(-c4nc5ccc(N6CCN(C)CC6)cc5[nH]4)cc3[nH]2)cc1 [Hoechst 33342]
- toxicity of the nuclear label under loading conditions: non-toxic

From patent US9315847B2, “Automated transient image cytometry” (priority 2009, dated 2016)
